Calls of active or inactive are those of the source. The rule behind the calls is not given here.
target: T1, Prothrombin (Homo sapiens, UniProt P00734); assay: Inhibitory activity against human thrombin; details: not given

| Structure (SMILES) | Ki [nM] |
| --- | --- |
| N[C@H]1CC[C@H](CNC(=O)C2C=CCn3c(=O)n(C(CSc4ccc(Cl)cc4)C(=O)O)c(=O)n32)CC1 (some centres not stated) | 5.7 |
| Cc1nc(N)ccc1CNC(=O)C1C=CCn2c(=O)n(C(CSc3ccccc3)C(=O)O)c(=O)n21 (configuration not stated) | 15 |
| COC(=O)C(CSc1ccccc1)n1c(=O)n2n(c1=O)C(C(=O)NC[C@H]1CC[C@H](N)CC1)C=CC2 (some centres not stated) | 2.9 |
| Cc1nc(N)ccc1CNC(=O)C1C=CCn2c(=O)n(C(CSc3ccc(Cl)cc3)C(=O)OC3CCCCC3)c(=O)n21 (configuration not stated) | 0.057 |
| N[C@H]1CC[C@H](CNC(=O)C2C=CCn3c(=O)n(C(CSc4ccccc4)C(=O)O)c(=O)n32)CC1 (some centres not stated) | 36 |
| COC(=O)C(CSc1ccc(OC)cc1)n1c(=O)n2n(c1=O)C(C(=O)NCc1ccc(N)nc1C)C=CC2 (configuration not stated) | 80 |
| COC(=O)C(CSC1CCCCC1)n1c(=O)n2n(c1=O)C(C(=O)NCc1ccc(N)nc1C)C=CC2 (configuration not stated) | 28 |
| COC(=O)C(CSc1ccc(Cl)c(Cl)c1)n1c(=O)n2n(c1=O)C(C(=O)NCc1ccc(N)nc1C)C=CC2 (configuration not stated) | 78 |
| COC(=O)C(CSc1ccc(Br)cc1)n1c(=O)n2n(c1=O)C(C(=O)NC[C@H]1CC[C@H](N)CC1)C=CC2 (some centres not stated) | 0.023 |
| Cc1nc(N)ccc1CNC(=O)C1C=CCn2c(=O)n(C(CSc3ccc(Cl)c(Cl)c3)C(=O)O)c(=O)n21 (configuration not stated) | 22 |
| Cc1nc(N)ccc1CNC(=O)C1C=CCn2c(=O)n(C(CSc3ccc(Br)cc3)C(=O)N3CCOCC3)c(=O)n21 (configuration not stated) | 39 |
| COC(=O)C(CSC1CCCCC1)n1c(=O)n2n(c1=O)C(C(=O)NC[C@H]1CC[C@H](N)CC1)C=CC2 (some centres not stated) | 91 |
| Cc1nc(N)ccc1CNC(=O)C1C=CCn2c(=O)n(C(CSc3ccc(Br)cc3)C(=O)OC(C)C)c(=O)n21 (configuration not stated) | 0.087 |
| Cc1nc(N)ccc1CNC(=O)C1C=CCn2c(=O)n(C(CSc3ccc(Cl)c(Cl)c3)C(=O)OC3CCCCC3)c(=O)n21 (configuration not stated) | 87 |
| N[C@H]1CC[C@H](CNC(=O)C2C=CCn3c(=O)n(C(CSc4ccc(Br)cc4)C(=O)O)c(=O)n32)CC1 (some centres not stated) | 2.6 |
| Cc1nc(N)ccc1CNC(=O)C1C=CCn2c(=O)n(C(CSc3ccc(Br)cc3)C(=O)N3CCCC3)c(=O)n21 (configuration not stated) | 30 |
| Cc1nc(N)ccc1CNC(=O)C1C=CCn2c(=O)n(C(CSc3ccc(Cl)c(Cl)c3)C(=O)N3CCCC3)c(=O)n21 (configuration not stated) | 18 |
| Cc1nc(N)ccc1CNC(=O)C1C=CCn2c(=O)n(C(CSc3ccc(Br)cc3)C(=O)OC3CCCCC3)c(=O)n21 (configuration not stated) | 1.5 |

| Structure (SMILES) | Ki [nM] |
| --- | --- |
| Cc1nc(N)ccc1CNC(=O)C1C=CCn2c(=O)n(C(CSc3ccc(Cl)c(Cl)c3)C(=O)OC(C)C)c(=O)n21 (configuration not stated) | 53 |
| N[C@H]1CC[C@H](CNC(=O)C2C=CCn3c(=O)n(C(CSc4ccc(Cl)c(Cl)c4)C(=O)O)c(=O)n32)CC1 (some centres not stated) | 13 |
| COC(=O)C(CSc1ccc(Cl)c(Cl)c1)n1c(=O)n2n(c1=O)C(C(=O)NC[C@H]1CC[C@H](N)CC1)C=CC2 (some centres not stated) | 0.24 |
| CCOC(=O)C(CSc1ccc(Br)cc1)n1c(=O)n2n(c1=O)C(C(=O)NCc1ccc(N)nc1C)C=CC2 (configuration not stated) | 0.27 |
| N[C@H]1CC[C@H](CNC(=O)C2C=CCn3c(=O)n(C(CSC4CCCCC4)C(=O)O)c(=O)n32)CC1 (some centres not stated) | 53 |
| COc1ccc(SCC(C(=O)O)n2c(=O)n3n(c2=O)C(C(=O)NC[C@H]2CC[C@H](N)CC2)C=CC3)cc1 (some centres not stated) | 4.7 |
| Cc1nc(N)ccc1CNC(=O)C1C=CCn2c(=O)n(C(CSc3ccc(Cl)cc3)C(=O)O)c(=O)n21 (configuration not stated) | 32 |
| COC(=O)C(CSc1ccc(Cl)cc1)n1c(=O)n2n(c1=O)C(C(=O)NC[C@H]1CC[C@H](N)CC1)C=CC2 (some centres not stated) | 0.32 |
| CCOC(=O)C(CSc1ccc(Cl)c(Cl)c1)n1c(=O)n2n(c1=O)C(C(=O)NCc1ccc(N)nc1C)C=CC2 (configuration not stated) | 28 |
| COC(=O)C(CSc1ccc(OC)cc1)n1c(=O)n2n(c1=O)C(C(=O)NC[C@H]1CC[C@H](N)CC1)C=CC2 (some centres not stated) | 0.75 |
| COC(=O)C(CSc1ccccc1)n1c(=O)n2n(c1=O)C(C(=O)NCc1ccc(N)nc1C)C=CC2 (configuration not stated) | 32 |
| COc1ccc(SCC(C(=O)O)n2c(=O)n3n(c2=O)C(C(=O)NCc2ccc(N)nc2C)C=CC3)cc1 (configuration not stated) | 29 |
| Cc1nc(N)ccc1CNC(=O)C1C=CCn2c(=O)n(C(CSc3ccc(Cl)cc3)C(=O)N3CCOCC3)c(=O)n21 (configuration not stated) | 7.7 |
| Cc1nc(N)ccc1CNC(=O)C1C=CCn2c(=O)n(C(CSc3ccc(Cl)cc3)C(=O)N3CCCC3)c(=O)n21 (configuration not stated) | 24 |
| Cc1nc(N)ccc1CNC(=O)C1C=CCn2c(=O)n(C(CSC3CCCCC3)C(=O)O)c(=O)n21 (configuration not stated) | 11 |
| COC(=O)C(CSc1ccc(Cl)cc1)n1c(=O)n2n(c1=O)C(C(=O)NCc1ccc(N)nc1C)C=CC2 (configuration not stated) | 82 |
| Cc1nc(N)ccc1CNC(=O)C1C=CCn2c(=O)n(C(CSc3ccc(Cl)cc3)C(=O)OC(C)C)c(=O)n21 (configuration not stated) | 1.5 |
| COC(=O)C(CSc1ccc(Br)cc1)n1c(=O)n2n(c1=O)C(C(=O)NCc1ccc(N)nc1C)C=CC2 (configuration not stated) | 83 |

target: T1, Prothrombin; assay: Inhibitory activity against thrombin at concentration 400 nM; NA: Not active; details: not given

| Structure (SMILES) | inhibition |
| --- | --- |
| CCCSCC(C(=O)O)n1c(=O)n2n(c1=O)C(C(=O)NC[C@H]1CC[C@H](N)CC1)C=CC2 (some centres not stated) | inactive |

target: T1, Prothrombin; details: at 400 nM
Description: Inhibitory activity against thrombin at 400 nM; NA=not active

| Structure (SMILES) | inhibition |
| --- | --- |
| COC(=O)C(CNC1CCCCC1)n1c(=O)n2n(c1=O)C(C(=O)NCc1ccc(N)nc1C)C=CC2 (configuration not stated) | inactive |
| COC(=O)C(CSc1ccc(Br)cc1)n1c(=O)n2n(c1=O)C(C(=O)NC[C@H]1CC[C@H](N)CC1)C=CC2 (some centres not stated) | inactive |
| N[C@H]1CC[C@H](CNC(=O)C2C=CCn3c(=O)n(C(CNC4CCCCC4)C(=O)O)c(=O)n32)CC1 (some centres not stated) | inactive |
| COC(=O)C(CSc1ccc(C)cc1C)n1c(=O)n2n(c1=O)C(C(=O)NCc1ccc(N)nc1C)C=CC2 (configuration not stated) | inactive |
| CCCSCC(C(=O)O)n1c(=O)n2n(c1=O)C(C(=O)NCc1ccc(N)nc1C)C=CC2 (configuration not stated) | inactive |
| Cc1nc(N)ccc1CNC(=O)C1C=CCn2c(=O)n(C(CNCC(C)C)C(=O)O)c(=O)n21 (configuration not stated) | inactive |
| Cc1nc(N)ccc1CNC(=O)C1C=CCn2c(=O)n(C(CSc3ccc(Br)cc3)C(=O)O)c(=O)n21 (configuration not stated) | inactive |
| CC(=O)Nc1ccc(SCC(C(=O)O)n2c(=O)n3n(c2=O)C(C(=O)NC[C@H]2CC[C@H](N)CC2)C=CC3)cc1 (some centres not stated) | inactive |
| COC(=O)C(CSCC(O)CO)n1c(=O)n2n(c1=O)C(C(=O)NCc1ccc(N)nc1C)C=CC2 (configuration not stated) | inactive |
| Cc1nc(N)ccc1CNC(=O)C1C=CCn2c(=O)n(C(CSCC(C)C)C(=O)O)c(=O)n21 (configuration not stated) | inactive |
| COC(=O)C(CNCC(C)C)n1c(=O)n2n(c1=O)C(C(=O)NCc1ccc(N)nc1C)C=CC2 (configuration not stated) | inactive |
| Cc1nc(N)ccc1CNC(=O)C1C=CCn2c(=O)n(C(CNCc3ccccc3)C(=O)O)c(=O)n21 (configuration not stated) | inactive |

target: T1, Prothrombin; assay: Inhibitory activity against thrombin; NA=not active; details: not given

| Structure (SMILES) | Ki |
| --- | --- |
| Cc1nc(N)ccc1CNC(=O)C1C=CCn2c(=O)n(C(CSc3ccc(Cl)c(Cl)c3)C(=O)N3CCOCC3)c(=O)n21 (configuration not stated) | Not Active |
| Cc1nc(N)ccc1CNC(=O)C1C=CCn2c(=O)n(C(CSc3ccc(Br)cc3)C(=O)O)c(=O)n21 (configuration not stated) | Not Active |
| CCOC(=O)C(CSc1ccc(Cl)cc1)n1c(=O)n2n(c1=O)C(C(=O)NCc1ccc(N)nc1C)C=CC2 (configuration not stated) | Not Active |
